Data from patent publication US7722863B2, “Use of granzyme b as an hsp70/hsp70 peptide dependent inducer of apoptosis in tumor cells” (Multimmune GmbH, priority 2002, dated 2010).

What was measured:
[1] = system: CD3 positive T cells; experiment: Intracellular granzyme B expression after treatment with Hsp70-peptide TKD; assay type: cell-based, human; settings: treated with Hsp70-peptide TKD
Method: The physiological role of our findings was tested in functional assays using naive and Hsp70 stimulated human NK cells. […] Although Hsp70 acts as a tumor-selective recognition structure for NK cells, as determined by antibody blocking studies (Multhoff et. al. (1997) J. Immunol. 158,4341; Multhoff et. al. (1995) Blood 86,1374), the NK-cytotoxic mechanism remains unclear. To elucidate the possible mechanism, NK cells were incubated with Hsp70-peptide TKD ([…]) for 3 days. […] In contrast, granzyme B expression was not increased in CD3 positive T cells treated with Hsp70-peptide TKD. Light microscopical analysis of Hsp70-peptide activated NK cells co-incubated with Hsp70 membrane-positive CX+ and Hsp70 membrane-negative CX− cells is illustrated in FIG. 4A. Hsp70 membrane-positive CX+ and Hsp70 membrane-negative CX− tumor cells (0.1×10^6 cells/ml) were cultured in duplicates in 24 well plates for 2 days. […] CX+ and CX− tumor cells in the upper panel were cultured in the absence of NK cells; tumor cells in the lower panel were co-cultured for 12 h with NK cells that had been stimulated with Hsp70-peptide TKD (2 μg/ml, 3 days). Nearly 100% of the CX+ cell colonies were found in clusters with NK cells and viability of CX+ tumor cells appears to be reduced. […]

[2] = system: CX− tumor target cells; experiment: 12 h 51Cr release assay, NK cell mediated cytotoxicity; assay type: cell-based, human; settings: TKD 3 days
Method: (§1) The NK cell line YT was cultured at cell densities ranging from 0.1-0.5×10^6 cells/ml RPMI-1640 medium (Life Technologies, Eggenstein, Germany) containing 10% heat inactivated fetal calf serum (FCS, Life Technologies, Eggenstein, Germany) supplemented with 6 mM L-glutamine, and antibiotics (100 IU/ml penicillin and 100 μg/ml streptomycin; Life Technologies). Transient plastic adherent NK cells were derived from buffy coats of healthy human volunteers. Ficoll separated peripheral blood mononuclear cells (PBMC) were cultured in rIL-2 (100 IU/ml, Chiron, Frankfurt, Germany) for 12 h. Following adherence selection of monocyte depleted peripheral blood lymphocytes according to a modified method of Vujanovic (Vujanovic et. al. (1993) Cell. Immunol. 151, 133), cells were cultivated in RPMI-1640 medium supplemented with Hsp70-peptide TKD (2 μg/ml) for 3 days. The human tumor sublines CX+/CX− and Colo+/Colo− were derived by cell sorting of CX-2 colon (Hsp70 positive: 60%) and Colo357 pancreas (Hsp70 positive: 70%) carcinoma cell lines using the Hsp70 specific monoclonal antibody C92F3B1, according to a previously described protocol (Multhoff et. al. (1997) J. Immunol. 158, 4341).
(§2) NK cell mediated cytotoxicity was measured using a 12 h ^51Cr radioisotope assay. As target cells the colon carcinoma sublines CX+ and CX− were used. For blocking studies the mAb C92F3B1 and an isotype matched control antibody (IgG1) were used at a final concentration of 5 μg/1×10^6 cells. Following incubation of CX+ and CX− target cells with the antibodies for 30 min at 4° C., the cells were labeled with ^51Cr and the cytotoxicity assay was performed as described by MacDonald (MacDonald et. al. (1974) J. Exp. Med. 140,718). The percentage of specific lysis was calculated as: [(experimental release−spontaneous release)/(maximal release−spontaneous release)]×100.
(§3) Cell kill of CX+/CX− and Colo+/Colo− tumor cells following contact with freshly isolated, unstimulated (NK d0) or Hsp70-peptide TKD stimulated NK cells (NK d3) was quantitated in a 12 h ^51Cr release assay (FIG. 4B). […] Technically, it is not possible to quantify the absolute amount of granzyme B that is transferred from NK cells into tumor cells by cell-to-cell contact. However, relative values of granzyme B release could be determined by ELISPOT analysis. Therefore, a comparison of the cytolytic response of freshly isolated, unstimulated (NK d0) and TKD-stimulated NK cells (NK d3) against CX+/CX− and Colo+/Colo− tumor cells was performed concomitantly with the definition of the granzyme B release. […] At an E:T ratio of 5:1, the number of granzyme B spots, as determined in three independent experiments, was as follows: CX+ 260±20, CX− 165±6; Colo+ 137±55; Colo− 66±8. […]

[3] = system: Colo+ tumor target cells; experiment: as above; assay type: cell-based, human; settings: E:T ratios 2:1 to 20:1; TKD 3 days
Method: as §1, §2, §3

[4] = system: CX+ tumor target cells; experiment: as above; assay type: cell-based, human; settings: E:T ratios 2:1 to 20:1; TKD 3 days
Method: as §1, §2, §3

[5] = system: Colo− tumor target cells; experiment: as above; assay type: cell-based, human; settings: TKD 3 days
Method: as §1, §2, §3

[6] = system: Hsp70 membrane-positive tumor target cells; settings: Hsp70-peptide 0.2-2.0 μg/ml; cited from earlier work
[7] = system: NK cells; experiment: Intracellular granzyme B expression after stimulation with Hsp70-peptide TKD; assay type: cell-based, human
Method: The NK cell line YT was cultured at cell densities ranging from 0.1-0.5×10^6 cells/ml RPMI-1640 medium (Life Technologies, Eggenstein, Germany) containing 10% heat inactivated fetal calf serum (FCS, Life Technologies, Eggenstein, Germany) supplemented with 6 mM L-glutamine, and antibiotics (100 IU/ml penicillin and 100 μg/ml streptomycin; Life Technologies). Transient plastic adherent NK cells were derived from buffy coats of healthy human volunteers. Ficoll separated peripheral blood mononuclear cells (PBMC) were cultured in rIL-2 (100 IU/ml, Chiron, Frankfurt, Germany) for 12 h. […]
Cells (0.5×10^6) were fixed in paraformaldehyde (1% PFA in PBS) for 10 min, and permeabilized in PBS containing BSA (0.5%), NaN3 (0.1%), and saponin (0.1%). […] Following washing cells were analysed on a FACSCalibur instrument (Becton Dickinson, Heidelberg, Germany).
The physiological role of our findings was tested in functional assays using naive and Hsp70 stimulated human NK cells. […] Although Hsp70 acts as a tumor-selective recognition structure for NK cells, as determined by antibody blocking studies (Multhoff et. al. (1997) J. Immunol. 158,4341; Multhoff et. al. (1995) Blood 86,1374), the NK-cytotoxic mechanism remains unclear. […]

[8] = system: Hsp70 membrane-positive CX+ cells; experiment: Microscopy of tumor cells co-incubated with Hsp70-peptide TKD stimulated NK cells; assay type: cell-based, human
Method: (§4) FIG. 4A: Light microscopy (magnification 20×) of Hsp70 membrane-positive CX+ and Hsp70 membrane-negative CX− cell colonies, either untreated (control) or following a 12 h co-incubation with Hsp70-peptide TKD stimulated NK cells (+NK). The effector to target cell ratio (E:T) was 20:1.
(§5) The physiological role of our findings was tested in functional assays using naive and Hsp70 stimulated human NK cells. […] Although Hsp70 acts as a tumor-selective recognition structure for NK cells, as determined by antibody blocking studies (Multhoff et. al. (1997) J. Immunol. 158,4341; Multhoff et. al. (1995) Blood 86,1374), the NK-cytotoxic mechanism remains unclear. To elucidate the possible mechanism, NK cells were incubated with Hsp70-peptide TKD ([…]) for 3 days. […] In contrast, granzyme B expression was not increased in CD3 positive T cells treated with Hsp70-peptide TKD. Light microscopical analysis of Hsp70-peptide activated NK cells co-incubated with Hsp70 membrane-positive CX+ and Hsp70 membrane-negative CX− cells is illustrated in FIG. 4A. Hsp70 membrane-positive CX+ and Hsp70 membrane-negative CX− tumor cells (0.1×10^6 cells/ml) were cultured in duplicates in 24 well plates for 2 days. […] CX+ and CX− tumor cells in the upper panel were cultured in the absence of NK cells; tumor cells in the lower panel were co-cultured for 12 h with NK cells that had been stimulated with Hsp70-peptide TKD (2 μg/ml, 3 days). Nearly 100% of the CX+ cell colonies were found in clusters with NK cells and viability of CX+ tumor cells appears to be reduced. […] Cell viability of CX− tumor cells following contact with NK cells appears to be less affected, as compared to that of CX+ tumor cells. The inserts in the lower right corner of each graph illustrates a 2.5× magnification of one representative cell colony.
as §3

[9] = system: Hsp70 membrane-negative CX− cells; experiment: as above; assay type: cell-based, human
Method: as §4, §5, §3

[10] = system: Colo+ tumor cells; experiment: Granzyme B ELISPOT, NK cells co-incubated with tumor cells; assay type: cell-based, human; settings: TKD-stimulated NK cells (NK d3), 4 h coincubation, E:T 5:1, three independent experiments
Method: (§6) Granzyme B release was compared in unstimualted NK cells (NK d0) and TKD stimulated NK cells (NK d3) after a 4 h co-incubation period with tumor cell lines CX+/CX− and Colo+/Colo−, at different effector to target cell ratios (E:T) ranging from 20:1 to 2:1. For detection a Granzyme B ELISPOT kit (#552572, BD, Heidelberg, Germany) was used. Briefly, 96-well ELISPOT plates (MAIPN45, Millipore) were coated overnight at 4° C. with capture antibody, blocked with RPMI-1640 culture medium containing 10% FCS and incubated with tumor and effector cells for 4 h at 37° C., as specified before. After washing in deionized water and wash buffers A and B, biotinylated anti-granzyme B antibody was added (2 μg/ml) for 2 h. After another two washing steps granzyme B was visualized by the addition of freshly prepared avidin-horseradish peroxidase (2 h) and substrate solution (25 min incubation period). Spots were counted automatically using ImmunoSpot Series I Analyzer. ^51Cr Release Assay and Inhibition Assay
(§7) Cell kill of CX+/CX− and Colo+/Colo− tumor cells following contact with freshly isolated, unstimulated (NK d0) or Hsp70-peptide TKD stimulated NK cells (NK d3) was quantitated in a 12 h ^51Cr release assay (FIG. 4B). […] Technically, it is not possible to quantify the absolute amount of granzyme B that is transferred from NK cells into tumor cells by cell-to-cell contact. However, relative values of granzyme B release could be determined by ELISPOT analysis. Therefore, a comparison of the cytolytic response of freshly isolated, unstimulated (NK d0) and TKD-stimulated NK cells (NK d3) against CX+/CX− and Colo+/Colo− tumor cells was performed concomitantly with the definition of the granzyme B release. Irrespectively of the tumor cell line and the E:T cell ratio, co-incubation of tumor cells with unstimulated NK cells (NK d0), always results in very low granzyme B release; the number of spots was always less than 20. […] At an E:T ratio of 5:1, the number of granzyme B spots, as determined in three independent experiments, was as follows: CX+ 260±20, CX− 165±6; Colo+ 137±55; Colo− 66±8. […] It was hypothesized that interaction of granzyme B with membrane-bound Hsp70-peptide TKD is key for its uptake into tumor cells and for the induction of apoptosis. When NK cells were removed by washing with PBS and the tumor cells were stained with DAPI. […] Identical results were obtained with Annexin V-FITC staining (data not shown).

[11] = system: Colo− tumor cells; experiment: as above; assay type: cell-based, human; settings: TKD-stimulated NK cells (NK d3), 4 h coincubation, E:T 5:1, three independent experiments
Method: as §6, §7

[12] = system: CX− tumor cells; experiment: as above; assay type: cell-based, human; settings: TKD-stimulated NK cells (NK d3), 4 h coincubation, E:T 5:1, three independent experiments
Method: as §6, §7

[13] = system: CX+ tumor cells; experiment: as above; assay type: cell-based, human; settings: TKD-stimulated NK cells (NK d3), 4 h coincubation, E:T 5:1, three independent experiments
Method: as §6, §7

[14] = 12 h co-culture with NK cells stimulated with TKD 2 μg/ml, 3 days, E:T 20:1

TKDNNLLGRFELSG (listed as Homo sapiens) [Hsp70-peptide TKD]
granzyme B expression in CD3 positive T cells [1]: not increased | lysis of CX− tumor cells, NK d3 versus NK d0 [2]: remained unaffected | lysis of Colo+ cells, TKD stimulated (NK d3) versus naive NK cells (NK d0) [3]: 2.0 fold | lysis of CX+ cells, TKD stimulated (NK d3) versus naive NK cells (NK d0) [4]: 1.5 fold | lysis of Colo− tumor cells, NK d3 versus NK d0 [5]: remained unaffected | cytolytic activity of NK cells against Hsp70 membrane-positive tumor target cells [6]: increased cytolytic activity | intracellular granzyme B levels, TKD stimulated NK cells (NK d3) versus naive NK cells (NK d0) ([7]; Hsp70-peptide TKD 2 μg/ml, 3 days): 1.4 fold | intracellular granzyme B expression in NK cells ([7]; Hsp70-peptide TKD for 3 days, 3 independent experiments): significantly elevated | CX+ cell colonies found in clusters with NK cells [8, 14]: ~100% | DNA fragmentation (DAPI) in CX+ cells after co-incubation with TKD activated NK cells ([8]; NK cells removed by washing): showed DNA fragmentation | CX− tumor cells in clusters with NK cells [9, 14]: not found in clusters | DNA fragmentation (DAPI) in CX− cells after co-incubation with TKD activated NK cells ([9]; NK cells removed by washing): not | number of granzyme B spots [10]: 137±55 | number of granzyme B spots [11]: 66±8 | number of granzyme B spots [12]: 165±6 | number of granzyme B spots [13]: 260±20
